The source of these data is patent US4014909A, “Esters of 21-thiol steroids” (priority 1974, dated 1977).

One series concerns granuloma. As to the kind of experiment: Anti-proliferative (anti-granulomatous) activity, cotton pellet granuloma. The format is in vivo, rat (Wistar, male). The note with it: rat, cotton pellet impregnated with product, 6 days. From the text:
The experimental local anti-inflammatory activity of the compounds presented was estimated in rats by their anti-proliferative (anti-granulomatous) action, and for certain of these, by their anti-arthritic activity and their antiexudative activity.
The anti-proliferative (anti-granulomatous) activity has been brought into evidence by means of a test, the principle of which is as follows.
The introduction of a foreign body into an organism produces a set of inflammatory reactions which results, in the chromic stage, in the formation of a defence granuloma around the foreign body. The proliferation of this granuloma is eliminated or attenuated by anti-inflammatory agents.
The technique employed is very similar to that described by Winter and Porter (J. Am. Pharm. Ass. 46/9. 515) 1957 with rats.
Homogeneous groups of 6 male adult rats of the Wistar Strain were used, distributed at random and having weights comprised between 180 and 200 grams.
The implants or pellets were prepared from rolls of dental cotton; the weight of the pellets was between 35 and 40 mg.
The products to be tested were dissolved in dimethylsulphoxide (DMSO) and the solutions obtained, deposited on the pellets at a volume of 0.2 ml per pellet. The DMSO was then evaporated under high vacuum at ambient temperature, the complete elimination of the solvent being checked by weighing the pellets. "Reference" pellets, soaked with the solvent alone, were treated in the same manner.
Immediately before their introduction, the pellets were soaked with an antibiotic solution (0.1 ml. of a solution of penicillin G and streptomycin containing 200,000 of penicillin G and 0.1 gram of streptomycin sulphate per cc.).
Each animal received two pellets in the sub-cutaneous dorsal tissue on each side of the spinal column, at the costo-lumbar angle, under light anaesthesia with ether. The day of the operation and for three days after, the animals received by sub-cutaneous injection, 0.1 ml. of the antibiotic solution in the caudal region.
Six days after the introduction, the animals were killed by inhalation of chloroform and the granulomae were extracted and weighed, (fresh weight), and then the initial weights of the cotton pellets were subtracted from the total weight.
Certain non-sulphured steroids causing a large increase in protein catabolism which can influence the formation of the granuloma independently of their anti-inflammatory action, the weights of the granulomae were expressed as a percentage of the body weight (technique proposed by G. Dipasquale and A. Meli: J. Pharm. Pharmacol. (1965), 17,367-382) and the anti-proliferative effect of the various compounds as a percentage inhibition with respect to the reference granulomae. The DE50 were calculated by transferring the results on to semi-logarithmic paper.

Series [1] is described as follows: Glycemia after 4 weeks treatment. The series is classed as in vivo, rat (Sprague-Dawley). As for the experimental part: The action on the endocrine glands and the genital tractus, and a possible ulcerogenic effect were investigated, together with the effects on the glucidic and proteic metabolisms, on the hydro-mineral equilibrium after long-term administration.
There were utilized groups of 10 male rats and ten female rats of Sprague-Dawley S.P.F. strain which have been given the products under study by sub-cateneous methods daily for four weeks.
The products were administered in suspension in 5 % carboxy-methyl-cellulose under a volume of 0.5 ml. per 100 grams of body weight, in three different doses, the animals of the reference lot receiving the same volume of the vehicle alone.
In order to confirm certain previous results of the pharmacological short-term study, there has furthermore been determined, for each lot of animals:
at the end of the treatment:
During the course of the long-term study, the JO 1016 was administered daily to the male and female rats in doses of 100 mg/kg, 250 mg/kg, 500 mg/kg by the sub-cutaneous route.
The following Tables XIV and XV indicate the results of the proportions of glycemia with the reference animals and animals treated for 4 weeks following the procedure (h)

A short description of series [2]: Action on the hydro-mineral metabolism: sodium excretion, 96 hours treatment. The series is classed as in vivo, rat (Wistar, male). The note with it: for Sodium excreted, average ± standard error: 96 hours treatment, 5 h urine. An excerpt:
The action on the hydro-mineral metabolism was examined by means of a test, the principle of which is as follows:
The gluco-corticoids are not all free from mineral-corticoid effects (for example hydro-cortisone). These latter are indicated by:
A reduced renal elimination of sodium (sodium retention);
a loss of potassium (potassium leakage), these two effects reproducing the action of aldosteron.
This study has been carried out on male Wistar rats having weights between 180 and 190 grams.
The animals were distributed at random in groups of ten.
The products under study were administered by the oral route in suspension in 5 % gum arabic. The animals of the reference group received the same volume of vehicle under the same conditions.
The treatments were carried out daily for 4 days.
The renal functional exploratory test was effected […] after the first administration of the product tested.
Eighteen hours before the test, the animals were completely deprived of food and water, this being subsequently maintained up to the end of the test.
Immediately before the renal functional test, the animals received an overdose by the oral route of physiological solution equal to 5 % by volume of their body weight.
The urine passed during five hours was collected for each animal in a polyethylene tube.
The concentration of sodium was determined in each sample by flame photometry; the total quantitt excreted was then calculated as a function of the corresponding volume of urine. The values obtained for each group were then compared following the Fisher Student method with the quantity of sodium excreted by the animals of the reference group.
The results obtained with hydro-cortisone acetate and the JO 1016 in the case of a treatment lasting 96 hours following the procedure (f) are indicated in the following Table XVI.

A short description of series [3]: Action on the protein metabolism: weight increase of immature rats, 96 hours. The series is classed as in vivo, rat (Wistar. From the text:
The action on the protein metabolism was examined by means of a test, the principle of which is as follows:
The administration of gluco-corticoids results in a disturbance of the protein metabolism, which is shown by an exaggerated protein catabolism resulting in shrinking of the tissues objectified by an inhibition of growth in weight in the young animal and a loss of body weight in the adult animal.
For this study, immature rats of Wistar strain were utilized, the initial weight of which was between 45 and 55 grams, which were distributed at random groups of 10.
The products under study were administered daily for 4 days. The animals were weighed daily during the 4 days of treatment and 24 hours after the last dose.
The products tested were administered either orally or by sub-cutaneous injection, in suspension in 5 % gum arabic for the oral route or in carboxy-methyl-cellulose at 5 % for the sub-cutaneous method, the animals of the reference group receiving the same volume of vehicle by the same method as the corresponding animals treated.
The average variation of the body weight during the 96 hours treatment was calculated for each group of animals.
The increase in weight of immature rats (45 to 55 grams) treated for 96 hours following the procedure (g) by JO 1016, by the oral or the sub-cutaneous routes (average weight at the end of the study, less the average weight at the beginning) are indicated in the following Table XVIII.

In series [4] the test system is liver, kidneys, spleen, thymus, stomach. The format is in vivo, rat (Sprague-Dawley). The settings on record: strong dose (436 mg/kg s.c. daily), male rat; study broken off on the 14th day.

Consider `CC(C)(C)C(=O)SCC(=O)[C@@]1(O)CC[C@H]2[C@@H]3CCC4=CC(=O)CC[C@]4(C)[C@H]3[C@@H](O)C[C@@]21C` [JO 1016, Dihydroxy-11β, 17α thio-21 dioxo-3,20 pregnene-4-21 pivalate], for which the ED50 anti-proliferative activity in the series on granuloma came to 0.35 mg/pellet. Moreover, the “Glycemia, average ± standard error” value in series [1] (female, 500 mg/kg s.c.) was 1,10 ± 0,04 g/liter; in series [1] (male, 100 mg/kg s.c.), 1.2 ± 0.04 g/L; in series [1] (male, 250 mg/kg s.c.), 1.2 ± 0.05 g/L. Also, the “Glycemia, percentage of variation and probabilities” value in series [1] (male, 500 mg/kg s.c.) was “N.S”. The “Sodium excreted, average ± standard error” value in series [2] (16 mg/kg oral) was found to be 0.820 ± 0.1040 Meq; in series [2] (32 mg/kg oral), 0.754 ± 0.0465 Meq; in series [2] (80 mg/kg oral) it was 0.684 ± 0.1591 Meq; in series [2] (160 mg/kg oral), 0.664 ± 0.0484 Meq. Also, the “Sodium excreted, percentage of variation” value in series [2] (16 mg/kg oral, 96 hours, hydrocortisone acetate 0,001 < p < 0,01, JO 1016 N.S.) is on record as 0,4%. The “Increase in weight of immature rats” value stood at 17 g in series [3] (1 mg/rat/day, sub-cutaneous route); 14 g in series [3] (3 mg/rat/day, oral route); 8 g in series [3] (10 mg/rat/day (last line of Table XVIII (so in the source)), oral route); 11 g in series [3] (10 mg/rat/day, oral route); 16 g in series [3] (10 mg/rat/day, sub-cutaneous route); 13 g in series [3] (30 mg/rat/day, oral route). The “Increase in weight of immature rats” value in series [3] (30 mg/rat/day, sub-cutaneous route) worked out at 16 g.
In the case of `CC(=O)OCC(=O)[C@@]1(O)CC[C@H]2[C@@H]3CCC4=CC(=O)CC[C@]4(C)[C@H]3[C@@H](O)C[C@@]21C` [Hydrocortisone (acetate), Hydrocortisone acetate, reference compound], the ED50 anti-proliferative activity with granuloma was found to be 1.05 mg/pellet. Also, the “Sodium excreted, average ± standard error” value in series [2] (16 mg/kg oral) is listed as 0,371 ± 0,0827 Meq. In series [4], the Mortality result is listed as “high mortality observed with the strong dose”.
